Reference: US6376666B1 (Nauchno-Issledovatelsky Institut Farmakologii Rossiiskoi …, priority 1994, dated 2002)

Key:
Format in all cases: in vivo
Balb/c mice = assay: open-field test, Balb/c mice (passive type of emotional-stress reaction); set-up: key to Total activity: sum of all locomotor activity counts (crossings + rearings) in 3 min; settings: for Central activity (crossings) / Number of defecations / Peripheral activity (crossings) / Total activity / Vertical activity (rearings): M ± mx; for effect on the behavior (locomotor activity) of Balb/c mice in open-field test, in words: i.p., screening
Source text: (§1) The main point of this approach consists in comparative analysis of the behavioural effects of tested compounds in two inbred strains of mice Balb/c and C57B1/6 with different hereditary types of emotional-stress reactions (ESR). The anxiolytic effect was estimated as the activation of the locomotor activity of animals with “passive” type of ESR (Balb/c mice). The main index describing the sedative properties of tested drugs was the inhibition of the locomotor activity of mice with “active” type of ESR (C57B1/6 strain). The anxioselectivity was evaluated according to coincidence of doses range which activated or inhibited the behavior of mice of different strains. Earlier this approach has been successfully used for estimation of anxioselective activity of such known drugs as phenazepam [Seredenin S. B. et al., Bull.Exp.Biol.Med., 1979, v.88, N7, p.38; Seredenin S. B. et al., Ann.Inst.Super.Sanita, 1990, v.26, N1, p.81-88], mexidol [Seredenin S. B. et al., Khimiko-Farmatsevt.Zhurnal, 1987, N2, p.134; Vironina T. A., Seredenin S. B., Ann.Inst.Super.Sanita, 1988, v.24, N3, p.461-466] and gidazepam [Seredenin S. B. et al., in: “Gidazepam” Kiev, Naukova Dumka, 1992, p.92; Seredenin S. B., Blednov Yu. A., Phys.Chem.Biol.Med., 1993, v.1, N1, p.53-60].
(§2) Male C57B1/6 and Balb/c mice (“Stolbovaya” animal farm), weighing 20-22 g were used. The animals were housed in a separate animal room in groups of ten and maintained on 12 h light-dark cycle (light from 8.00 till 20.00) with free access to standard food and water during two weeks before experiment. Testing was performed between 9.00 and 13.00. Every used compound was administered intraperitoneally in water solutions 30 min before testing (0,1 ml solution per 10 g of weight). The “open-field” apparatus consisted of cylinder closed from one end, illuminated by four 75 W lamps fixed to the walls 100 cm above the floor. The “open-field” apparatus was 100 cm in diameter and white-painted; the floor was marked with 3 black circles and some radial lines divided the floor into 16 peripheral and 8 central segments. 30 min after injection each animal was placed in the same peripheral square on the floor for 3 min of testing after 1 min exposure in the dark chamber. The following behavior variables were recorded: 1) the number of crossings in the peripheral area (peripheral activity); 2) the number of crossings in the central segments (central activity); 3) the number of rearings (vertical activity); 4) the emotionality was measured as the number of defecations during the test. The sum of all types of locomotor activity was marked as total activity. The t-Student test was used for statistical analysis.

C57B1/6 mice = assay: open-field test, C57B1/6 mice (active type of emotional-stress reaction); set-up: key to Total activity: sum of all locomotor activity counts (crossings + rearings) in 3 min; settings: for Central activity (crossings) / Peripheral activity (crossings) / Total activity / Vertical activity (rearings): M ± mx; for effect on locomotor activity of C57B1/6 mice in open-field test, in words: i.p., doses that activate Balb/c mice
Source text: as §1, §2

cats = assay: hemodynamics and activity of intact heart in cats under anesthesia; settings: cats i.v.; for effect on heart rate, in words: doses of 0,5 mg/kg-2,0 mg/kg
Method: The effects of compounds on the hemodynamics and activity of intact heart were studied in cats under anesthesia. The experiments were carried out under conditions of open chest. The phase curve of aortic blood flow was the main index of cardiac activity. The compounds were administered i.v. in physiological solution. The t-Student' test was used to estimate the statistical significance.

## C=CCSc1nc2cc(C)c(C)cc2[nH]1 [III, 2-Allylthio-5,6-dimethylbenzimidazole]
Balb/c mice; 0.1 mg/kg i.p.
  Central activity (crossings): 3.3 ± 2.0
  Number of defecations: 2.5 ± 0.9
  Peripheral activity (crossings): 28.1 ± 5.8
  Total activity: 32.1 ± 7.9
  Vertical activity (rearings): 0.6 ± 0.4
Balb/c mice; 1.0 mg/kg i.p.
  Central activity (crossings): 0.6 ± 0.3
  Number of defecations: 2.5 ± 0.7
  Peripheral activity (crossings): 35.8 ± 6.1
  Total activity: 36.4 ± 6.4
Balb/c mice; 5.0 mg/kg i.p.
  Central activity (crossings): 0.3 ± 0.3
  Number of defecations: 3.0 ± 0.7
  Peripheral activity (crossings): 46.8 ± 9.9
  Total activity: 47.5 ± 10.3
  Vertical activity (rearings): 0.4 ± 0.3
Balb/c mice; 10.0 mg/kg i.p.
  Central activity (crossings): 3.3 ± 2.1
  Number of defecations: 2.0 ± 0.7
  Peripheral activity (crossings): 56.1 ± 12.2
  Total activity: 59.4 ± 13.8
Balb/c mice; 20.0 mg/kg i.p.
  Number of defecations: 1.5 ± 0.7
  Peripheral activity (crossings): 24.0 ± 11.5
  Total activity: 24.1 ± 11.5
Balb/c mice
  effect on the behavior (locomotor activity) of Balb/c mice in open-field test, in words: able to activate the behavior of Balb/c mice
C57B1/6 mice; 0.1 mg/kg i.p.
  Central activity (crossings): 42.1 ± 4.8
  Peripheral activity (crossings): 109.4 ± 8.3
  Total activity: 170.9 ± 10.0
  Vertical activity (rearings): 19.4 ± 3.4
C57B1/6 mice; 0.5 mg/kg i.p.
  Central activity (crossings): 42.1 ± 7.5
  Peripheral activity (crossings): 118.4 ± 9.0
  Total activity: 184.6 ± 8.6
  Vertical activity (rearings): 22.6 ± 2.0
C57B1/6 mice; 1.0 mg/kg i.p.
  Central activity (crossings): 35.9 ± 7.6
  Peripheral activity (crossings): 107.8 ± 7.4
  Total activity: 165.9 ± 13.5
  Vertical activity (rearings): 22.3 ± 3.8
C57B1/6 mice; 5.0 mg/kg i.p.
  Central activity (crossings): 28.8 ± 6.9
  Peripheral activity (crossings): 130.8 ± 16.8
  Total activity: 177.8 ± 20.7
  Vertical activity (rearings): 18.6 ± 2.7
C57B1/6 mice; 10.0 mg/kg i.p.
  Central activity (crossings): 23.6 ± 5.3
  Peripheral activity (crossings): 118.0 ± 7.9
  Total activity: 154.4 ± 13.3
  Vertical activity (rearings): 12.9 ± 1.8
C57B1/6 mice; 50.0 mg/kg i.p.
  Central activity (crossings): 24.0 ± 2.7
  Peripheral activity (crossings): 105.2 ± 11.9
  Total activity: 141.3 ± 11.7
  Vertical activity (rearings): 12.1 ± 1.3
C57B1/6 mice
  effect on locomotor activity of C57B1/6 mice in open-field test, in words: without any changes in locomotor activity

## CCOc1ccc2nc(SCCN(CC)CC)[nH]c2c1 [VI, 2-2-[(Diethylamino)ethylthio]-5-ethoxybenzo-imidazole]
Balb/c mice; 0.1 mg/kg i.p., 0.1 mg/kg
  Peripheral activity (crossings): 3.0 ± 1.8
  Total activity: 3.0 ± 1.8
Balb/c mice; 1.0 mg/kg i.p.
  Vertical activity (rearings): 0.4 ± 0.4
Balb/c mice; 1.0 mg/kg i.p., 1 mg/kg
  Peripheral activity (crossings): 3.3 ± 1.3
  Total activity: 3.7 ± 1.7
Balb/c mice; 10.0 mg/kg i.p., 10 mg/kg
  Peripheral activity (crossings): 3.1 ± 0.8
  Total activity: 3.1 ± 0.8
Balb/c mice
  effect on the behavior (locomotor activity) of Balb/c mice in open-field test, in words: inhibited the locomotor activity
cats
  effect on heart rate, in words: small and short bradycardia

## Cc1cc2nc(SCCN3CCCC3)[nH]c2cc1C [XIII, 2-[2-(Pyrrolidino)ethylthio]-5,6-dimethylbenzimidazole]
Balb/c mice; 0.5 mg/kg i.p.
  Central activity (crossings): 4.3 ± 4.1
  Number of defecations: 2.9 ± 0.6
  Peripheral activity (crossings): 32.0 ± 5.7
  Total activity: 36.3 ± 9.8
Balb/c mice; 1.0 mg/kg i.p.
  Central activity (crossings): 0.8 ± 0.5
  Number of defecations: 1.0 ± 0.5
  Peripheral activity (crossings): 80.0 ± 11.2
  Total activity: 80.8 ± 11.7
Balb/c mice; 5.0 mg/kg i.p.
  Number of defecations: 1.6 ± 0.7
  Peripheral activity (crossings): 69.0 ± 13.2
  Total activity: 69.0 ± 13.2
Balb/c mice; 50.0 mg/kg i.p.
  Central activity (crossings): 0.7 ± 0.5
  Peripheral activity (crossings): 27.7 ± 6.2
  Total activity: 28.4 ± 6.7
Balb/c mice
  effect on the behavior (locomotor activity) of Balb/c mice in open-field test, in words: able to activate the behavior of Balb/c mice
C57B1/6 mice
  effect on locomotor activity of C57B1/6 mice in open-field test, in words: without any changes in locomotor activity

## CCN(CC)CCSc1nc2ccccc2n1Cc1ccccc1 [XIX, 1-Benzyl-2-[2-(diethylarnino)ethylthio]benzimidazole]
Balb/c mice
  effect on the behavior (locomotor activity) of Balb/c mice in open-field test, in words: inhibited the locomotor activity
cats
  effect on parameters of hemodynamics and heart activity, in words: no effects on the parameters of hemodynamics and heart activity

## CCOc1ccc2nc(SCCN3CCCCC3)[nH]c2c1 [XI]
Balb/c mice
  effect on the behavior (locomotor activity) of Balb/c mice in open-field test, in words: neither activatory nor inhibitory effects
cats
  effect on parameters of hemodynamics and heart activity, in words: no effects on the parameters of hemodynamics and heart activity

## Cc1cc2nc(SCCCN(C)C)[nH]c2cc1C [XVI, 2-[3-(Dimethylamino)propylthio]-5,6-dimethylbenzimidazole]
Balb/c mice
  effect on the behavior (locomotor activity) of Balb/c mice in open-field test, in words: inhibited the locomotor activity
cats
  effect on parameters of hemodynamics and heart activity, in words: no effects on the parameters of hemodynamics and heart activity

## Cc1cc2nc(SCCCN3CCN(C)CC3)[nH]c2cc1C [XVII, 2-[3-(4-Methylpyperazino)propylthio]-5,6-dimethylbenzimidazole]
Balb/c mice; 0.1 mg/kg i.p.
  Central activity (crossings): 0.5 ± 0.5
  Number of defecations: 2.0 ± 0.8
  Peripheral activity (crossings): 4.0 ± 1.0
  Total activity: 4.5 ± 1.5
Balb/c mice; 1.0 mg/kg i.p.
  Number of defecations: 0.1 ± 0.1
  Peripheral activity (crossings): 7.7 ± 1.9
Balb/c mice
  effect on the behavior (locomotor activity) of Balb/c mice in open-field test, in words: inhibited the locomotor activity
cats
  effect on heart rate, in words: small and short bradycardia

## CN(C)CCSc1nc2ccccc2n1Cc1ccccc1 [XVIII, 1-Benzyl-2-[2-(dimethylamino)ethylthuo]benzimidazole]
cats
  effect on parameters of hemodynamics and heart activity, in words: no effects on the parameters of hemodynamics and heart activity

## CCN(CC)CCSc1nc2ccccc2n1CCc1ccccc1 [XXI, 1-(β-Phenylethyl)-2-[2-(diethylamino)ethylthio]benzimidazole]
Balb/c mice
  effect on the behavior (locomotor activity) of Balb/c mice in open-field test, in words: neither activatory nor inhibitory effects
cats
  effect on heart rate, in words: small and short bradycardia

## c1ccc(CCn2c(SCCN3CCOCC3)nc3ccccc32)cc1 [XXII]
Balb/c mice
  effect on the behavior (locomotor activity) of Balb/c mice in open-field test, in words: neither activatory nor inhibitory effects
cats
  effect on parameters of hemodynamics and heart activity, in words: no effects on the parameters of hemodynamics and heart activity
